Measured values taken from patent EP0908457B1, “3-(1,2-benzisothiazol- and isoxazol-5-Y1)-2,4(1H,3H)-pyrimidinedione or thione and 3-(1,2-benzisothiazol- and isoxazol-5-y1)-4(3H)-pyrimidinone or thione herbicidal agents” (BASF AKTIENGESELLSCHAFT, priority 1997, dated 1999).

Experiments:
[1] = system: Echinochloa oryzoides (Ard.) Fritsch.; test: Preemergence weed control under flooded paddy conditions, ECHORC (Watergrass (Calif.)); format: in vivo; conditions: flooded paddy; for herbicidal effect rating, ECHORC / ECHORC herbicidal effect rating: preemergence; for ECHORC: preemergence weeds, herbicidal effect rating 0-9, three to four weeks after treatment; for herbicidal effect rating, ECHORC: meaning of each grade not given here
Cyperus iria = test: Preemergence weed control under flooded paddy conditions, CYPIR (Rice Flatsedge); format: in vivo; conditions: flooded paddy; for herbicidal effect rating, CYPIR / CYPIR herbicidal effect rating: preemergence; for CYPIR: preemergence weeds, herbicidal effect rating 0-9, three to four weeks after treatment; for herbicidal effect rating, CYPIR: meaning of each grade not given here
[2] = system: Cyperus serotinus, Rottb.; test: Preemergence weed control under flooded paddy conditions, CYPSE (Flatsedge); format: in vivo; conditions: for herbicidal effect rating, CYPSE / CYPSE herbicidal effect rating: preemergence; for CYPSE: preemergence weeds, herbicidal effect rating 0-9, three to four weeks after treatment; for herbicidal effect rating, CYPSE: meaning of each grade not given here
[3] = system: Monochoria vaginalis, Presl.; test: Preemergence weed control under flooded paddy conditions, MOOVA (Monochoria); format: in vivo; conditions: flooded paddy; for herbicidal effect rating, MOOVA / MOOVA herbicidal effect rating: preemergence; for MOOVA: preemergence weeds, herbicidal effect rating 0-9, three to four weeks after treatment; for herbicidal effect rating, MOOVA: meaning of each grade not given here
Sagittaria pygmaea, L. = test: Preemergence weed control under flooded paddy conditions, SAGPY (Arrowhead (Pygmaea)); format: in vivo; conditions: flooded paddy; for herbicidal effect rating, SAGPY / SAGPY herbicidal effect rating: preemergence; for SAGPY: preemergence weeds, herbicidal effect rating 0-9, three to four weeks after treatment; for herbicidal effect rating, SAGPY: meaning of each grade not given here
[4] = system: Oryza sativa, (L.) Tebonnet; test: Rice tolerance to post-transplant applications under flooded paddy conditions (Example 187), ORYSAT (Rice, Tebonnet); conditions: for ORYSAT: herbicidal effect rating 0-9, three to four weeks after treatment; for herbicidal effect rating ORYSAT: meaning of each grade not given here
[5] = Rate 0.0320 kg/ha, rated 3-4 weeks after treatment
[6] = Rate 0.0620 kg/ha, rated 3-4 weeks after treatment
[7] = Rate 0.1250 kg/ha, rated 3-4 weeks after treatment
[8] = Rate 0.2500 kg/ha, rated 3-4 weeks after treatment
[9] = Rate 0.5000 kg/ha, rated 3-4 weeks after treatment
[10] = Rate 0.0320 kg/ha, rated three to four weeks after treatment
[11] = Rate 0.0620 kg/ha, rated three to four weeks after treatment
[12] = Rate 0.1250 kg/ha, rated three to four weeks after treatment
[13] = Rate 0.2500 kg/ha, rated three to four weeks after treatment
[14] = Rate 0.5000 kg/ha, rated three to four weeks after treatment
[15] = Rate 0.0313 kg/ha, rated three to four weeks after treatment
[16] = Rate 0.0625 kg/ha, rated three to four weeks after treatment

SMILES: CCS(=O)(=O)NC(=O)COc1ccccc1-c1nsc2ccc(-n3c(=O)cc(C(F)(F)F)n(C)c3=O)cc12 [Example 558, Acetamide, 2-{o-{5-[3,6-dihydro-3-methyl-2,6-dioxo-4-(trifluoromethyl)-1(2H)-pyrimidinyl]-1,2-benzisothiazol-3-yl}phenoxy}-N-(ethylsulfonyl)-]
- herbicidal effect rating, ECHORC [1, 5]: 4.3
- herbicidal effect rating, ECHORC [1, 6]: 4.7
- herbicidal effect rating, ECHORC [1, 7]: 7.0
- herbicidal effect rating, ECHORC [1, 8]: 9.0
- herbicidal effect rating, ECHORC [1, 9]: 9.0
- herbicidal effect rating, CYPIR (Cyperus iria; [5]): 2.0
- herbicidal effect rating, CYPIR (Cyperus iria; [6]): 6.0
- herbicidal effect rating, CYPIR (Cyperus iria; [7]): 8.0
- herbicidal effect rating, CYPIR (Cyperus iria; [8]): 9.0
- herbicidal effect rating, CYPIR (Cyperus iria; [9]): 9.0
- herbicidal effect rating, CYPSE [2, 7]: 9.0
- herbicidal effect rating, CYPSE [2, 8]: 9.0
- herbicidal effect rating, CYPSE [2, 9]: 9.0
- herbicidal effect rating, MOOVA [3, 5]: 9.0
- herbicidal effect rating, MOOVA [3, 6]: 9.0
- herbicidal effect rating, MOOVA [3, 7]: 9.0
- herbicidal effect rating, MOOVA [3, 8]: 9.0
- herbicidal effect rating, MOOVA [3, 9]: 9.0
- herbicidal effect rating, SAGPY (Sagittaria pygmaea, L.; [5]): 2.0
- herbicidal effect rating, SAGPY (Sagittaria pygmaea, L.; [6]): 2.0
- herbicidal effect rating, SAGPY (Sagittaria pygmaea, L.; [7]): 4.0
- herbicidal effect rating, SAGPY (Sagittaria pygmaea, L.; [8]): 8.0
- herbicidal effect rating, SAGPY (Sagittaria pygmaea, L.; [9]): 4.0
- herbicidal effect rating ORYSAT [4, 5]: 4.0
- herbicidal effect rating ORYSAT [4, 6]: 7.0
- herbicidal effect rating ORYSAT [4, 7]: 9.0
- herbicidal effect rating ORYSAT [4, 8]: 9.0
- herbicidal effect rating ORYSAT [4, 9]: 9.0

SMILES: CC#CCOC(=O)c1nsc2ccc(-n3c(=O)cc(C(F)(F)F)n(C)c3=O)cc12 [Example 384, 1,2-Benzisothiazole-3-carboxylic acid, 5-[3,6-dihydro-3-methyl-2,6-dioxo-4-(trifluoromethyl)-1(2H)-pyrimidinyl]-, 2-butynyl ester]
- herbicidal effect rating, ECHORC [1, 10]: 2.0
- herbicidal effect rating, ECHORC [1, 11]: 4.0
- herbicidal effect rating, ECHORC [1, 12]: 4.0
- herbicidal effect rating, ECHORC [1, 13]: 6.0
- herbicidal effect rating, CYPIR (Cyperus iria; [10]): 4.0
- herbicidal effect rating, CYPIR (Cyperus iria; [11]): 7.0
- herbicidal effect rating, CYPIR (Cyperus iria; [12]): 8.0
- herbicidal effect rating, CYPIR (Cyperus iria; [13]): 8.0
- herbicidal effect rating, CYPSE [2, 10]: 7.0
- herbicidal effect rating, CYPSE [2, 11]: 7.0
- herbicidal effect rating, CYPSE [2, 12]: 7.0
- herbicidal effect rating, CYPSE [2, 13]: 7.0
- herbicidal effect rating, MOOVA [3, 10]: 9.0
- herbicidal effect rating, MOOVA [3, 11]: 9.0
- herbicidal effect rating, MOOVA [3, 12]: 9.0
- herbicidal effect rating, MOOVA [3, 13]: 9.0
- herbicidal effect rating, SAGPY (Sagittaria pygmaea, L.; [10]): 5.0
- herbicidal effect rating, SAGPY (Sagittaria pygmaea, L.; [11]): 6.0
- herbicidal effect rating, SAGPY (Sagittaria pygmaea, L.; [12]): 6.0
- herbicidal effect rating, SAGPY (Sagittaria pygmaea, L.; [13]): 6.0
- herbicidal effect rating ORYSAT [4, 10]: 4.0
- herbicidal effect rating ORYSAT [4, 11]: 4.0
- herbicidal effect rating ORYSAT [4, 12]: 7.0
- herbicidal effect rating ORYSAT [4, 13]: 6.0

SMILES: C=CCC(C#N)(CC=C)c1nsc2ccc(-n3c(=O)cc(C(F)(F)F)n(C)c3=O)cc12 [Example 580, 1,2-Benzisothiazole-3-acetonitrile, alpha,alpha-diallyl-5-[3,6-dihydro-3-methyl-2,6-dioxo-4-(trifluoromethyl)-1(2H)-pyrimidinyl]-]
- herbicidal effect rating, ECHORC [1, 10]: 8.5
- herbicidal effect rating, ECHORC [1, 11]: 9.0
- herbicidal effect rating, ECHORC [1, 12]: 9.0
- herbicidal effect rating, ECHORC [1, 13]: 9.0
- herbicidal effect rating, CYPIR (Cyperus iria; [10]): 3.0
- herbicidal effect rating, CYPIR (Cyperus iria; [11]): 9.0
- herbicidal effect rating, CYPIR (Cyperus iria; [12]): 9.0
- herbicidal effect rating, CYPIR (Cyperus iria; [13]): 9.0
- herbicidal effect rating, CYPSE [2, 10]: 5.5
- herbicidal effect rating, CYPSE [2, 11]: 9.0
- herbicidal effect rating, CYPSE [2, 12]: 9.0
- herbicidal effect rating, CYPSE [2, 13]: 8.5
- herbicidal effect rating, MOOVA [3, 10]: 4.5
- herbicidal effect rating, MOOVA [3, 11]: 9.0
- herbicidal effect rating, MOOVA [3, 12]: 9.0
- herbicidal effect rating, MOOVA [3, 13]: 9.0
- herbicidal effect rating, SAGPY (Sagittaria pygmaea, L.; [10]): 5.5
- herbicidal effect rating, SAGPY (Sagittaria pygmaea, L.; [11]): 8.0
- herbicidal effect rating, SAGPY (Sagittaria pygmaea, L.; [12]): 8.0
- herbicidal effect rating, SAGPY (Sagittaria pygmaea, L.; [13]): 8.5
- herbicidal effect rating ORYSAT [4, 10]: 1.5
- herbicidal effect rating ORYSAT [4, 11]: 4.0
- herbicidal effect rating ORYSAT [4, 12]: 4.0
- herbicidal effect rating ORYSAT [4, 13]: 6.5

SMILES: Cn1c(C(F)(F)F)cc(=O)n(-c2ccc3snc(C(=O)NS(=O)(=O)c4cccs4)c3c2)c1=O [Example 391, 1,2-Benzisothiazole-3-carboxamide, 5-[3,6-dihydro-3-methyl-2,6-dioxo-4-(trifluoromethyl)-1(2H)-pyrimidinyl]-N-(2-thienylsulfonyl)-]
- herbicidal effect rating, ECHORC [1, 10]: 0.0
- herbicidal effect rating, ECHORC [1, 11]: 0.0
- herbicidal effect rating, ECHORC [1, 12]: 2.0
- herbicidal effect rating, ECHORC [1, 13]: 4.0
- herbicidal effect rating, ECHORC [1, 14]: 6.0
- herbicidal effect rating, CYPIR (Cyperus iria; [10]): 3.0
- herbicidal effect rating, CYPIR (Cyperus iria; [11]): 3.0
- herbicidal effect rating, CYPIR (Cyperus iria; [12]): 4.0
- herbicidal effect rating, CYPIR (Cyperus iria; [13]): 6.0
- herbicidal effect rating, CYPIR (Cyperus iria; [14]): 9.0
- herbicidal effect rating, CYPSE [2, 10]: 0.0
- herbicidal effect rating, CYPSE [2, 11]: 0.0
- herbicidal effect rating, CYPSE [2, 12]: 0.0
- herbicidal effect rating, CYPSE [2, 13]: 0.0
- herbicidal effect rating, CYPSE [2, 14]: 3.0
- herbicidal effect rating, MOOVA [3, 10]: 6.0
- herbicidal effect rating, MOOVA [3, 11]: 9.0
- herbicidal effect rating, MOOVA [3, 12]: 9.0
- herbicidal effect rating, MOOVA [3, 13]: 9.0
- herbicidal effect rating, MOOVA [3, 14]: 9.0
- herbicidal effect rating, SAGPY (Sagittaria pygmaea, L.; [10]): 6.0
- herbicidal effect rating, SAGPY (Sagittaria pygmaea, L.; [11]): 6.0
- herbicidal effect rating, SAGPY (Sagittaria pygmaea, L.; [12]): 7.0
- herbicidal effect rating, SAGPY (Sagittaria pygmaea, L.; [13]): 7.0
- herbicidal effect rating, SAGPY (Sagittaria pygmaea, L.; [14]): 9.0
- herbicidal effect rating ORYSAT [4, 10]: 2.0
- herbicidal effect rating ORYSAT [4, 11]: 2.0
- herbicidal effect rating ORYSAT [4, 12]: 3.0
- herbicidal effect rating ORYSAT [4, 13]: 3.0
- herbicidal effect rating ORYSAT [4, 14]: 3.0

SMILES: Cc1nsc2ccc(-n3c(=O)cc(C(F)(F)F)n(CC#N)c3=O)cc12 [Example 213, 3,4-Dihydro-3-(3-methyl-1,2-benzisothiazol-5-yl)-2,4-dioxo-6-(trifluoromethyl)-1(2H)-pyrimidineacetonitrile]
- ECHORC herbicidal effect rating [1, 15]: 0.0
- ECHORC herbicidal effect rating [1, 16]: 0.0
- ECHORC herbicidal effect rating [1, 12]: 0.0
- ECHORC herbicidal effect rating [1, 13]: 0.0
- CYPIR herbicidal effect rating (Cyperus iria; [15]): 0.0
- CYPIR herbicidal effect rating (Cyperus iria; [16]): 0.0
- CYPIR herbicidal effect rating (Cyperus iria; [12]): 0.0
- CYPSE herbicidal effect rating [2, 15]: 0.0
- CYPSE herbicidal effect rating [2, 16]: 0.0
- CYPSE herbicidal effect rating [2, 12]: 0.0
- CYPSE herbicidal effect rating [2, 13]: 0.0
- MOOVA herbicidal effect rating [3, 15]: 0.0
- MOOVA herbicidal effect rating [3, 16]: 0.0
- MOOVA herbicidal effect rating [3, 12]: 0.0
- MOOVA herbicidal effect rating [3, 13]: 2.0
- SAGPY herbicidal effect rating (Sagittaria pygmaea, L.; [15]): 0.0
- SAGPY herbicidal effect rating (Sagittaria pygmaea, L.; [16]): 0.0
- SAGPY herbicidal effect rating (Sagittaria pygmaea, L.; [12]): 0.0
- SAGPY herbicidal effect rating (Sagittaria pygmaea, L.; [13]): 0.0
- ORYSAT herbicidal effect rating [4, 15]: 3.0
- ORYSAT herbicidal effect rating [4, 16]: 4.0
- ORYSAT herbicidal effect rating [4, 12]: 6.0
- ORYSAT herbicidal effect rating [4, 13]: 7.0

SMILES: COc1cc(C(Br)Br)ccc1-c1nsc2ccc(-n3c(=O)cc(C(F)(F)F)n(C)c3=O)cc12 [Example 447, 2,4(1H,3H)-Pyrimidinedione, 3-[3-(alpha,alpha-dibromo-2-methoxy-p-tolyl)-1,2-benzisothiazol-5-yl]-1-methyl-6-(trifluoromethyl)-]
- ECHORC ([1]; 0.0320 kg/ha): 4.0
- ECHORC ([1]; 0.0620 kg/ha): 6.0
- ECHORC ([1]; 0.1250 kg/ha): 7.0
- ECHORC ([1]; 0.2500 kg/ha): 9.0
- CYPIR (Cyperus iria; 0.0320 kg/ha): 4.0
- CYPIR (Cyperus iria; 0.0620 kg/ha): 6.0
- CYPIR (Cyperus iria; 0.1250 kg/ha): 7.0
- CYPIR (Cyperus iria; 0.2500 kg/ha): 9.0
- CYPSE ([2]; 0.0320 kg/ha): 0.0
- CYPSE ([2]; 0.0620 kg/ha): 0.0
- CYPSE ([2]; 0.2500 kg/ha): 4.0
- MOOVA ([3]; 0.0320 kg/ha): 7.0
- MOOVA ([3]; 0.0620 kg/ha): 9.0
- MOOVA ([3]; 0.1250 kg/ha): 9.0
- MOOVA ([3]; 0.2500 kg/ha): 9.0
- SAGPY (Sagittaria pygmaea, L.; 0.0320 kg/ha): 4.0
- SAGPY (Sagittaria pygmaea, L.; 0.0620 kg/ha): 4.0
- SAGPY (Sagittaria pygmaea, L.; 0.1250 kg/ha): 5.0
- SAGPY (Sagittaria pygmaea, L.; 0.2500 kg/ha): 9.0
- ORYSAT ([4]; 0.0320 kg/ha): 4.0
- ORYSAT ([4]; 0.0620 kg/ha): 4.0
- ORYSAT ([4]; 0.1250 kg/ha): 5.0
- ORYSAT ([4]; 0.2500 kg/ha): 7.0
